From patent publication US12064516B2, “Pharmaceutical formulations and uses thereof” (Aldeyra Therapeutics, Inc., priority 2020, dated 2024)
Marks after values point to notes of the source that are not given here.

Experiment: Pharmacokinetic comparison of ADX-102 (reproxalap) and compound I-1 in rats
Assay type: in vivo, Sprague-Dawley rats
Settings: SD Rat
[1] = oral gavage 10 mg/kg, CMC/Tween

CC(C)(O)c1nc2ccc(Cl)cc2cc1N [ADX-102]
Vss (intravenous data using captisol formulation): 1.36 L/kg
CL (intravenous data using captisol formulation, in mL/min/kg): 23**
AUC 0-inf/Dose [1]: 64
AUC 0-t/Dose [1]: 60
AUC(0-inf) [1]: 640 ng·h/mL
AUC(0-t) [1]: 595 ng·h/mL
Cmax [1]: 390 ng/mL
Tmax [1]: 0.5 h
t1/2 [1]: 2.27 h
